# Source: paper PMC3419816 (Journal of molecular neuroscience : MN, 2012)
# Like-named read-outs stand apart in the source and are kept apart here. Positions of bridges follow the written chain, without caps; N, C: chain ends. No end group written: not given here.
# B1: Cholecystokinin (peptide, UniProt P06307 21-115, looked up)
# Cholecystokinin: QPVPPADPAGSGLQRAEEAPRRQLRVSQRTDGESRAHLGALLARYIQQARKAPSGRMSIVKNLQNLDPSHRISDRDYMGWMDFGRRSAEEYEYPS
# modifications: Cholecystokinin
# What was measured:
# [1] = test system: cytosolic Ca^2+ (NCI-H69 cells); settings: 10 μM, ref Roelle et al., 2008; cited from earlier work
# PYK-2 [2] = settings: 10 μM, NCI-H510; ref Roelle et al., 2008; cited from earlier work
# PYK-2 [3] = settings: NCI-H69, ref Roelle et al., 2008, cited from earlier work; for PYK-2 tyrosine phosphorylation: 10 μM
# [4] = test system: cytosolic Ca^2+ (NCI-H510 cells); settings: 10 μM, ref Roelle et al., 2008; cited from earlier work
# [5] = test system: prostate, breast, pancreatic and colon tumors; settings: nude mice; ref Roberts et al., 2008; cited from earlier work
# FAK [6] = settings: read-out: FAK IC50, cited from earlier work
# PYK-2 [7] = settings: read-out: PYK-2 IC50, cited from earlier work
# FAK [8] = settings: pancreatic acini, cited from earlier work
# [9] = test system: epidermal growth factor receptor (EGFR); settings: ref Moody et al., 2012, cited from earlier work; for effect on PACAP-induced EGFR tyrosine phosphorylation: NCI-H838
# ERK [10] = settings: NCI-H69; ref Roelle et al., 2008; cited from earlier work
# PYK-2 [11] = settings: by an increase in cytoplasmic Ca^2+; ref Lev et al., 1995; cited from earlier work
# [12] = test system: cytosolic Ca^2+ (pancreatic acini); settings: ref Pace et al., 2003; cited from earlier work
# [13] = test system: cytosolic Ca^2+ (NCI-H838 cells); assay: Cytosolic Ca^2+ in Fura-2 AM loaded NCI-H838 cells; assay type: cell-based; settings: for effect on PACAP-induced increase in cytosolic Ca^2+ (discussion): NCI-H838 cells; for effect on PACAP-27-stimulated fluorescence intensity / effect on basal fluorescence intensity: 50 μM inhibitor; for effect on PACAP-27-stimulated fluorescence intensity: 100 nM PACAP-27, Fig. 1; for effect on basal fluorescence intensity: Fig. 1
# [14] = test system: phosphatidylinositol turnover; settings: lung cancer cells, cited from earlier work
# VPAC2 = settings: ref Ishihara et al., 1992; Lutz et al., 1993; cited from earlier work
# NCI-H838 cells = settings: ref Moody et al., cited from earlier work; for growth of NCI-H838 cells: 2003b
# VPAC1 = settings: ref Ishihara et al., 1992; Lutz et al., 1993; cited from earlier work
# PAC1 = settings: cited from earlier work
# cAMP = settings: lung cancer cells, cited from earlier work
# ERK [15] = settings: NCI-H838; ref Moody et al., 2002; cited from earlier work
# PYK-2 [16] = assay: Total PYK-2 Western blot, NCI-H838 cells; assay type: cell-based; settings: 100 nM, 2 min, Fig. 3A
# glioma tumor = settings: animal models; ref Halder et al., 2007; cited from earlier work
# ovarian tumor = settings: animal models; ref Halder et al., 2007; cited from earlier work
# [17] = ATP binding, ref Roberts et al., 2008
# [18] = ATP binding site, ref Liu et al., 2007
molecule,measurement,setting,value
"galanin (GWTLNSAGYLLGPHAVGNHRSFSDKNGLTS; Galanin; UniProt P22466 33-62, looked up)",cytosolic Ca^2+,[1],increased
same,PYK-2 tyrosine phosphorylation,PYK-2 [2],increased
same,PYK-2 tyrosine phosphorylation,PYK-2 [3],increased
same,cytosolic Ca^2+,[4],increased
"CN(c1ncccc1CNc1nc(Nc2ccc3c(c2)CC(=O)N3)ncc1C(F)(F)F)S(C)(=O)=O [PF-562,271]","growth of prostate, breast, pancreatic and colon tumors",[5],inhibited
same,IC50,FAK [6]; [17],2 nM
same,IC50,PYK-2 [7]; [17],13 nM
CN(C)CCCn1cc(C2=C(c3c[nH]c4ccccc34)C(=O)NC2=O)c2ccccc21 [GF109203X],effect on CCK-induced FAK tyrosine phosphorylation,"FAK [8]; ref Tapia et al., 1999",unaffected
CC(C)(C)n1nc(-c2ccc(Cl)cc2)c2c(N)ncnc21 [PP2],effect on PACAP-induced EGFR tyrosine phosphorylation,[9],inhibited
same,effect on GAL- or BK-induced PYK-2 phosphorylation,PYK-2 [3],blocked
same,effect on GAL- or BK-induced ERK tyrosine phosphorylation,ERK [10],blocked
platelet-derived growth factor,PYK-2 activation,PYK-2 [11],activated
C/C=C(/C)C(=O)O[C@H]1C(C)=C2[C@H]([C@@H]1OC(=O)CCCCCCC)[C@@](C)(OC(C)=O)C[C@H](OC(=O)CCC)[C@@]1(O)[C@H]2OC(=O)[C@@]1(C)O [thapsigargin],effect on CCK-induced increase in cytosolic Ca^2+,[12],inhibits
O=C(O)CN(CC(=O)O)c1ccccc1OCCOc1ccccc1N(CC(=O)O)CC(=O)O [BAPTA],effect on PACAP-induced EGFR tyrosine phosphorylation,[9],not BAPTA inhibited
same,effect on PACAP-induced increase in cytosolic Ca^2+ (discussion),[13],inhibited
same,effect on GAL- or BK-induced PYK-2 phosphorylation,PYK-2 [3],blocked
vasoactive intestinal peptide [VIP],PI turnover,"[14]; ref Lee et al., 1990",does not cause PI turnover
same,binding affinity to VPAC2,VPAC2,high affinity
same,growth of NCI-H838 cells,NCI-H838 cells,stimulated
same,binding affinity to VPAC1,VPAC1,high affinity
same,binding affinity to PAC1,"PAC1; ref Ishihara et al., 1992, Lutz et al., 1993",low affinity
same,cAMP,"cAMP; ref Lee et al., 1990",increases
"vasopressin (CYFQNCPRG-NH2; disulfide 1-6; ends not checked; UniProt P01185 20-28, looked up)",PYK-2 activation,PYK-2 [11],activated
"bradykinin (RPPGFSPFR; Bradykinin; UniProt P01042 381-389, looked up)",cytosolic Ca^2+,[1],increased
same,PYK-2 tyrosine phosphorylation,PYK-2 [2],increased
same,PYK-2 tyrosine phosphorylation,PYK-2 [3],increased
same,cytosolic Ca^2+,[4],increased
COc1cccc(-c2cc(=O)c3ccccc3o2)c1N [PD98059],effect on PACAP-induced ERK tyrosine phosphorylation,ERK [15],inhibited
pituitary adenylate cyclase activating polypeptide [PACAP],Y^1068-EGFR phosphorylation,"[9]; NCI-H838, after 1 min",increased
same,total PYK-2,PYK-2 [16],did not change
same,PI metabolites,[14]; ref not given,increases
same,ERK tyrosine phosphorylation,ERK [15],caused ERK tyrosine phosphorylation
same,growth of NCI-H838 cells,NCI-H838 cells,stimulated
same,binding affinity to PAC1,PAC1; ref not given for PACAP,high affinity
same,cAMP,cAMP; ref not given,increases
CNC(=O)c1ccccc1Nc1nc(Nc2ccc(N3CCOCC3)cc2OC)ncc1Cl [TAE226],glioma tumor growth,glioma tumor,inhibited
same,ovarian tumor growth,ovarian tumor,inhibited
same,IC50,FAK [6]; [18],5 nM
same,IC50,PYK-2 [7]; [18],5 nM
O=S(=O)(NCCNC/C=C/c1ccc(Br)cc1)c1cccc2cnccc12 [H89],effect on PACAP-27-stimulated fluorescence intensity,[13],no effect
same,effect on basal fluorescence intensity,[13],no effect
"PACAP(6–38): PAC1 antagonist (FTDSYSRYRKQMAVKKYLAAVLGKRYKQRVKNK; ends and bridges not checked; UniProt P18509 137-169, looked up, fragment)",effect on PACAP-induced EGFR tyrosine phosphorylation,[9],inhibited
same,effect on PACAP-induced increase in cytosolic Ca^2+ (discussion),[13],blocked
same,growth of NCI-H838 cells,NCI-H838 cells,inhibited
same,inhibition of proliferation of NCI-H838 cells,NCI-H838 cells; 2012,inhibited
COc1ccc2c(c1)CC[C@@H]1[C@@H]2CC[C@]2(C)[C@@H](NCCCCCCN3C(=O)C=CC3=O)CC[C@@H]12 [U73122],effect on ionomycin-induced increase in cytosolic Ca^2+,"[13]; 5 μM ionomycin, data not shown",little effect
same,effect on PACAP-27-stimulated fluorescence intensity,[13],abolished
same,effect on basal fluorescence intensity,[13],little effect
B1,cytosolic Ca^2+,[12],elevates
same,tyrosine phosphorylation of FAK,"FAK [8]; ref Pace et al., 2003",causes tyrosine phosphorylation
